Results taken from patent US4181797A, “1-N-(ω-amino-α-hydroxyalkanoyl) derivatives of 4'-deoxy-6'-N-methylkanamycin A” (Bristol-Myers Company, priority 1978, dated 1980).
Converted amounts (≈) assume the structure as drawn.

Tests used:
[1] = test system: E. cloacae A21006; assay: MIC in Mueller-Hinton agar, APH(3')-II producer; type: cell-based; conditions: Enterobacter cloacae; E. cloacae A21006; enzyme produced: APH(3')-II; Mueller-Hinton agar; read-out: MIC
Protocol: (§1) The Minimum Inhibitory Concentrations (MIC's) of BB-K311, amikacin and kanamycin A were determined in Mueller-Hinton agar against a number of kanamycin-sensitive and kanamycin-resistant strains of organisms.

[2] = test system: E. coli A20107; assay: MIC in Mueller-Hinton agar, APH(3')-II producer; type: cell-based; conditions: Escherichia coli; E. coli A20107; enzyme produced: APH(3')-II; Mueller-Hinton agar; read-out: MIC
Protocol: as §1

[3] = test system: K. pneumoniae A15130; assay: MIC in Mueller-Hinton agar, kanamycin-sensitive strain; type: cell-based; conditions: Klebsiella pneumoniae; K. pneumoniae A15130; enzyme produced: none; Mueller-Hinton agar; read-out: MIC
Protocol: as §1

[4] = test system: E. coli A9632; assay: as above; type: cell-based; conditions: Escherichia coli; E. coli A9632; enzyme produced: none; Mueller-Hinton agar; read-out: MIC
Protocol: as §1

[5] = test system: E. cloacae A20464; assay: as above; type: cell-based; conditions: Enterobacter cloacae; E. cloacae A20464; enzyme produced: none; Mueller-Hinton agar; read-out: MIC
Protocol: as §1

[6] = test system: P. stuartii A20615; assay: as above; type: cell-based; conditions: Providencia stuartii; P. stuartii A20615; enzyme produced: none; Mueller-Hinton agar; read-out: MIC
Protocol: as §1

[7] = test system: S. aureus Smith; assay: as above; type: cell-based; conditions: Staphylococcus aureus; S. aureus Smith; enzyme produced: none; Mueller-Hinton agar; read-out: MIC
Protocol: as §1

[8] = test system: P. Morganii A20031; assay: as above; type: cell-based; conditions: Morganella morganii; P. Morganii A20031; enzyme produced: none; Mueller-Hinton agar; read-out: MIC
Protocol: as §1

[9] = test system: B. brevis ATCC8185; assay: as above; type: cell-based; conditions: Brevibacillus brevis; B. brevis ATCC8185; enzyme produced: none; Mueller-Hinton agar; read-out: MIC
Protocol: as §1

[10] = test system: S. marcescens A20019; assay: as above; type: cell-based; conditions: Serratia marcescens; S. marcescens A20019; enzyme produced: none; Mueller-Hinton agar; read-out: MIC
Protocol: as §1

[11] = test system: P. vulgaris A9526; assay: as above; type: cell-based; conditions: Proteus vulgaris; P. vulgaris A9526; enzyme produced: none; Mueller-Hinton agar; read-out: MIC
Protocol: as §1

[12] = test system: P. mirabilis A9900; assay: as above; type: cell-based; conditions: Proteus mirabilis; P. mirabilis A9900; enzyme produced: none; Mueller-Hinton agar; read-out: MIC
Protocol: as §1

[13] = test system: E. coli A20895; assay: MIC in Mueller-Hinton agar, AAC(3)-I producer; type: cell-based; conditions: Escherichia coli; E. coli A20895; enzyme produced: AAC(3)-I; Mueller-Hinton agar; read-out: MIC
Protocol: as §1

[14] = test system: E. coli A20732; assay: MIC in Mueller-Hinton agar, ANT(2") producer; type: cell-based; conditions: Escherichia coli; E. coli A20732; enzyme produced: ANT(2"); Mueller-Hinton agar; read-out: MIC
Protocol: as §1

[15] = test system: microorganisms containing aminoglycoside-inactivating enzymes; conditions: background statement; cited from earlier work
[16] = test system: aminoglycoside-4'-adenylyltransferase [ANT(4')]; conditions: background statement; cited from earlier work
[17] = test system: aminoglycoside-6'-acetyltransferase [AAC(6')]; conditions: background statement; cited from earlier work
[18] = test system: S. marcescens A21235; assay: MIC in Mueller-Hinton agar, AAC(6')-producing strain; type: cell-based; conditions: Serratia marcescens; S. marcescens A21235; AAC(6')-producing; Mueller-Hinton agar; read-out: MIC
Protocol: as §1

[19] = test system: S. aureus A22153; assay: as above; type: cell-based; conditions: Staphylococcus aureus; S. aureus A22153; AAC(6')-producing; Mueller-Hinton agar; read-out: MIC
Protocol: as §1

[20] = test system: S. epidermidis A22152; assay: as above; type: cell-based; conditions: Staphylococcus epidermidis, A22152
Protocol: as §1

[21] = test system: S. aureus A22421; assay: as above; type: cell-based; conditions: Staphylococcus aureus; S. aureus A22421; AAC(6')-producing; Mueller-Hinton agar; read-out: MIC
Protocol: as §1

[22] = test system: S. marcescens A21226; assay: as above; type: cell-based; conditions: Serratia marcescens; S. marcescens A21226; AAC(6')-producing; Mueller-Hinton agar; read-out: MIC
Protocol: as §1

[23] = test system: S. marcescens A22382; assay: as above; type: cell-based; conditions: Serratia marcescens; S. marcescens A22382; AAC(6')-producing; Mueller-Hinton agar; read-out: MIC
Protocol: as §1

[24] = test system: S. epidermidis A22211; assay: as above; type: cell-based; conditions: Staphylococcus epidermidis; S. epidermidis A22211; AAC(6')-producing; Mueller-Hinton agar; read-out: MIC
Protocol: as §1

[25] = test system: P. aeruginosa GN4925; assay: as above; type: cell-based; conditions: Pseudomonas aeruginosa; P. aeruginosa GN4925; AAC(6')-producing; Mueller-Hinton agar; read-out: MIC
Protocol: as §1

[26] = test system: S. marcescens A22288; assay: as above; type: cell-based; conditions: Serratia marcescens; S. marcescens A22288; AAC(6')-producing; Mueller-Hinton agar; read-out: MIC
Protocol: as §1

[27] = test system: P. rettgeri HM-56; assay: as above; type: cell-based; conditions: Providencia rettgeri, HM56; P. rettgeri HM-56; AAC(6')-producing; Mueller-Hinton agar; read-out: MIC
Protocol: as §1

[28] = test system: P. aeruginosa GN315; assay: as above; type: cell-based; conditions: Pseudomonas aeruginosa; P. aeruginosa GN315; AAC(6')-producing; Mueller-Hinton agar; read-out: MIC
Protocol: as §1

[29] = test system: E. cloacae HM-43; assay: as above; type: cell-based; conditions: Enterobacter cloacae, HM43; E. cloacae HM-43; AAC(6')-producing; Mueller-Hinton agar; read-out: MIC
Protocol: as §1

[30] = test system: E. coli A2128; assay: as above; type: cell-based; conditions: Escherichia coli; E. coli A2128; AAC(6')-producing; Mueller-Hinton agar; read-out: MIC
Protocol: as §1

[31] = test system: E. cloacae A20364; assay: MIC in Mueller-Hinton agar, APH(3')-I producer; type: cell-based; conditions: Enterobacter cloacae; E. cloacae A20364; enzyme produced: APH(3')-I; Mueller-Hinton agar; read-out: MIC
Protocol: as §1

[32] = test system: E. coli A20363; assay: MIC in Mueller-Hinton agar, APH(3')-I producer; type: cell-based; conditions: Escherichia coli; E. coli A20363; enzyme produced: APH(3')-I; Mueller-Hinton agar; read-out: MIC
Protocol: as §1

[33] = test system: S. epidermidis A22033; assay: MIC in Mueller-Hinton agar, ANT(4')-producing strain; type: cell-based; conditions: Staphylococcus epidermidis; S. epidermidis A22033; ANT(4')-producing; Mueller-Hinton agar; read-out: MIC
Protocol: as §1

[34] = test system: B. brevis IFO 12334; assay: as above; type: cell-based; conditions: Brevibacillus brevis, IFO12334; B. brevis IFO 12334; ANT(4')-producing; Mueller-Hinton agar; read-out: MIC
Protocol: as §1

[35] = test system: S. aureus A22054; assay: as above; type: cell-based; conditions: Staphylococcus aureus; S. aureus A22054; ANT(4')-producing; Mueller-Hinton agar; read-out: MIC
Protocol: as §1

NCC[C@H](O)C(=O)N[C@@H]1C[C@H](N)[C@@H](O[C@H]2O[C@H](CN)[C@@H](O)[C@H](O)[C@H]2O)[C@H](O)[C@H]1O[C@H]1O[C@H](CO)[C@@H](O)[C@H](N)[C@H]1O [Amikacin, 1-N-[L-(-)-γ-amino-α-hydroxybutyryl]kanamycin A]
MIC [1]: 1.6 µg/mL (≈ 2.73 µM) | MIC [2]: 1.6 µg/mL (≈ 2.73 µM) | MIC [3]: 1.6 µg/mL (≈ 2.73 µM) | MIC [4]: 0.8 µg/mL (≈ 1.37 µM) | MIC [5]: 3.1 µg/mL (≈ 5.29 µM) | MIC [6]: 1.6 µg/mL (≈ 2.73 µM) | MIC [7]: 0.8 µg/mL (≈ 1.37 µM) | MIC [8]: 1.6 µg/mL (≈ 2.73 µM) | MIC [9]: 0.8 µg/mL (≈ 1.37 µM) | MIC [10]: 1.6 µg/mL (≈ 2.73 µM) | MIC [11]: 0.8 µg/mL (≈ 1.37 µM) | MIC [12]: 1.6 µg/mL (≈ 2.73 µM) | MIC [13]: 0.8 µg/mL (≈ 1.37 µM) | MIC [14]: 0.8 µg/mL (≈ 1.37 µM) | effectiveness against enzyme-containing microorganisms [15]: effective against a wide variety of microorganisms containing aminoglycoside-inactivating enzymes | susceptibility to ANT(4') [16]: still susceptible | susceptibility to AAC(6') [17]: still susceptible | MIC [18]: 25 µg/mL (≈ 42.7 µM) | MIC [19]: 12.5 µg/mL (≈ 21.3 µM) | MIC [20]: 3.1 µg/mL (≈ 5.29 µM) | MIC [21]: 12.5 µg/mL (≈ 21.3 µM) | MIC [22]: 6.3 µg/mL (≈ 10.8 µM) | MIC [23]: 12.5 µg/mL (≈ 21.3 µM) | MIC [24]: 12.5 µg/mL (≈ 21.3 µM) | MIC [25]: 12.5 µg/mL (≈ 21.3 µM) | MIC [26]: 6.3 µg/mL (≈ 10.8 µM) | MIC [27]: > 100 µg/mL | MIC [28]: 50 µg/mL (≈ 85.4 µM) | MIC [29]: > 100 µg/mL | MIC [30]: 3.1 µg/mL (≈ 5.29 µM) | MIC [31]: 3.1 µg/mL (≈ 5.29 µM) | MIC [32]: 1.6 µg/mL (≈ 2.73 µM) | MIC [33]: 6.3 µg/mL (≈ 10.8 µM) | MIC [34]: 6.3 µg/mL (≈ 10.8 µM) | MIC [35]: 6.3 µg/mL (≈ 10.8 µM)
